Measurements as given in patent US10472341B2, “Bicyclic tetrahydrothiazepine derivatives useful for the treatment of neoplastic and/or infectious diseases” (APEIRON BIOLOGICS AG, priority 2015, dated 2019).
Where a name gives a salt, the structure may show the parent alone. Read-outs that look alike come from different tables or passages of the source.

Assays:
[1] = tested on: aCD3/aCD28-stimulated human PBMCs; test: Cytokine production in aCD3/aCD28 stimulated human PBMCs; assay type: cell-based; conditions: PBMC, 18 h
Procedure, shortened: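 Compound effects measured in buffy-coat PBMCs activated 18 h at 37° C by 1 μg/mL each of soluble anti-CD3 (OKT3) and anti-CD28 (28.2), 1e6 cells/mL. Cytokines in harvested supernatants read by MSD or HTRF.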

[2] = tested on: aCD3/aCD28-stimulated human CD4+-T-cells; test: IL-2 production and activation markers in aCD3/aCD28 stimulated isolated human CD4+-T-cells; assay type: cell-based; conditions: IL-2 production at 3 μM compound
Procedure, shortened: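 CD4+ T cells isolated from buffy-coat PBMCs by microbeads were plated in Xvivo medium (1.5*10^5 cells/well) and stimulated with anti-CD3/28 mAbs plus compound. IL-2 measured by ELISA in supernatants at 24 h or 48 h; CD25 and proliferation by flow cytometry, CD69 at 24 h. Activity classes based on IL-2 at 3 μM compound.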

[3] = enhancement of IFN-γ production, read-out: Activity Class IFN-γ
[4] = enhancement of IL-2 production, read-out: Activity Class IL-2

Row | SMILES | EC50 [1, 3] [µM] | EC50 [1, 4] [µM] | Activity Class CD4+ [2]
1 | CCCCNC(=O)c1cc2c(cc1F)SC[C@H](N)C(=O)N2Cc1ccc(Cl)cc1F.Cl [Example 54, (3R)-3-amino-N-butyl-5-[(4-chloro-2-fluorophenyl)methyl]-8-fluoro-4-oxo-2,3,4,5-tetrahydro-1,5-benzothiazepine-7-carboxamide hydrochloride] | 1.58 to 5.01 | 1.58 to 5.01 | B (IL-2 production at 3 μM compound concentration between 2-10 ng/mL)
2 | Cl.N[C@H]1CSc2ccc(C(=O)NCC3CCCOC3)cc2N(Cc2ccc(Cl)cc2)C1=O (stereo partly drawn) [Example 28, (3R)-3-amino-5-[(4-chlorophenyl)methyl]-N-(oxan-3-ylmethyl)-4-oxo-2,3,4,5-tetrahydro-1,5-benzothiazepine-7-carboxamide hydrochloride] | 1.58 to 5.01 | > 5.01 | C (IL-2 production at 3 μM compound concentration between 2-fold increase as compared to mean IL-2 production of stimulated cells in the absence of compounds and <2 ng/mL)
3 | CC(C)C(C)NC(=O)c1ccc2c(c1)N(Cc1ccc(Cl)cc1)C(=O)[C@@H](N)CS2(=O)=O.Cl (stereo partly drawn) [Example 83, (3R)-3-amino-5-[(4-chlorophenyl)methyl]-N-(3-methylbutan-2-yl)-1,1,4-trioxo-2,3,4,5-tetrahydro-1λ^6,5-benzothiazepine-7-carboxamide hydrochloride] | < 1.58 | > 5.01 | B (IL-2 production at 3 μM compound concentration between 2-10 ng/mL)
4 | CCCCCCCNC(=O)c1cc2c(cc1F)S(=O)(=O)C[C@H](N)C(=O)N2Cc1ccc(Cl)cc1.Cl [Example 104, (3R)-3-amino-5-[(4-chlorophenyl)methyl]-8-fluoro-N-heptyl-1,1,4-trioxo-2,3,4,5-tetrahydro-1λ^6,5-benzothiazepine-7-carboxamide hydrochloride] | < 1.58 | < 1.58 | A (IL-2 production at 3 μM compound concentration >10 ng/mL)
5 | Cl.N[C@H]1CSc2ccc(C(=O)NCc3ccc(F)cc3)cc2N(Cc2ccc(C(F)(F)F)nc2)C1=O [Example 37, (3R)-3-amino-N-[(4-fluorophenyl)methyl]-4-oxo-5-{[6-(trifluoromethyl)pyridin-3-yl]methyl}-2,3,4,5-tetrahydro-1,5-benzothiazepine-7-carboxamide hydrochloride] | > 5.01 | 1.58 to 5.01 | C (IL-2 production at 3 μM compound concentration between 2-fold increase as compared to mean IL-2 production of stimulated cells in the absence of compounds and <2 ng/mL)
6 | Cl.Cl.N[C@H]1CSc2ccc(C(=O)Nc3cccnc3)cc2N(Cc2ccc(OC(F)(F)F)cc2)C1=O [Example 25, (3R)-3-amino-4-oxo-N-(pyridin-3-yl)-5-{[4-(trifluoromethoxy)phenyl]methyl}-2,3,4,5-tetrahydro-1,5-benzothiazepine-7-carboxamide dihydrochloride] | > 5.01 | 1.58 to 5.01 | C (IL-2 production at 3 μM compound concentration between 2-fold increase as compared to mean IL-2 production of stimulated cells in the absence of compounds and <2 ng/mL)
7 | Cl.N[C@H]1CSc2ccc(C(=O)NCCCC(F)(F)F)cc2N(Cc2ccc(OC(F)(F)F)cc2)C1=O [Example 29, (3R)-3-amino-4-oxo-N-(4,4,4-trifluorobutyl)-5-{[4-(trifluoromethoxy)phenyl]methyl}-2,3,4,5-tetrahydro-1,5-benzothiazepine-7-carboxamide hydrochloride] | < 1.58 | < 1.58 | B (IL-2 production at 3 μM compound concentration between 2-10 ng/mL)
8 | CCCCNC(=O)c1cc2c(cc1N(C)C)S(=O)(=O)C[C@H](N)C(=O)N2Cc1ccc(Cl)cc1 [Example 114, (3R)-3-amino-N-butyl-5-[(4-chlorophenyl)methyl]-8-(dimethylamino)-1,1,4-trioxo-2,3,4,5-tetrahydro-1 λ^6,5-benzothiazepine-7-carboxamide hydrochloride] | 1.58 to 5.01 | > 5.01 | C (IL-2 production at 3 μM compound concentration between 2-fold increase as compared to mean IL-2 production of stimulated cells in the absence of compounds and <2 ng/mL)
9 | CC(C)(O)CNC(=O)c1ccc2c(c1)N(Cc1ccc(Cl)cc1)C(=O)[C@@H](N)CS2 [Example 48, (3R)-3-amino-5-[(4-chlorophenyl)methyl]-N-(2-hydroxy-2-methylpropyl)-4-oxo-2,3,4,5-tetrahydro-1,5-benzothiazepine-7-carboxamide] | 1.58 to 5.01 | > 5.01 | C (IL-2 production at 3 μM compound concentration between 2-fold increase as compared to mean IL-2 production of stimulated cells in the absence of compounds and <2 ng/mL)
10 | Cl.N[C@H]1CSc2ccc(C(=O)NCc3ccc(N4CCOCC4)cc3)cc2N(Cc2ccc(OC(F)(F)F)cc2)C1=O [Example 11, (3R)-3-amino-N-{[4-(morpholin-4-yl)phenyl]methyl}-4-oxo-5-{[4-(trifluoromethoxy)-phenyl]methyl}-2,3,4,5-tetrahydro-1,5-benzothiazepine-7-carboxamide hydrochloride] | > 5.01 | > 5.01 | C (IL-2 production at 3 μM compound concentration between 2-fold increase as compared to mean IL-2 production of stimulated cells in the absence of compounds and <2 ng/mL)
11 | Cl.N[C@H]1CS(=O)(=O)c2ccc(C(=O)NCCCC(F)(F)F)cc2N(Cc2ccc(Cl)cc2)C1=O [Example 80, (3R)-3-amino-5-[(4-chlorophenyl)methyl]-1,1,4-trioxo-N-(4,4,4-trifluorobutyl)-2,3,4,5-tetrahydro-1λ^6,5-benzothiazepine-7-carboxamide hydrochloride] | < 1.58 | < 1.58 | A (IL-2 production at 3 μM compound concentration >10 ng/mL)
12 | CC(C)CONC(=O)c1cc2c(cc1F)S(=O)(=O)C[C@H](N)C(=O)N2Cc1ccc(Cl)cc1.Cl [Example 75, (3R)-3-amino-5-[(4-chlorophenyl)methyl]-8-fluoro-N-(2-methylpropoxy)-1,1,4-trioxo-2,3,4,5-tetrahydro-1λ^6,5-benzothiazepine-7-carboxamide hydrochloride] | 1.58 to 5.01 | > 5.01 | B (IL-2 production at 3 μM compound concentration between 2-10 ng/mL)
13 | CCCCNC(=O)c1ccc2c(c1)N(Cc1cccc(OC(F)(F)F)c1)C(=O)[C@@H](N)CS2.Cl [Example 9, (3R)-3-amino-N-butyl-4-oxo-5-{[3-(trifluoromethoxy)phenyl]methyl}-2,3,4,5-tetrahydro-1,5-benzothiazepine-7-carboxamide hydrochloride] | 1.58 to 5.01 | > 5.01 | C (IL-2 production at 3 μM compound concentration between 2-fold increase as compared to mean IL-2 production of stimulated cells in the absence of compounds and <2 ng/mL)
14 | CC1(NC(=O)c2cc3c(cc2F)S(=O)(=O)C[C@H](N)C(=O)N3Cc2ccc(Cl)cc2)CC1.Cl [Example 99, (3R)-3-amino-5-[(4-chlorophenyl)methyl]-8-fluoro-N-(1-methylcyclopropyl)-1,1,4-trioxo-2,3,4,5-tetrahydro-1λ^6,5-benzothiazepine-7-carboxamide hydrochloride] | 1.58 to 5.01 | 1.58 to 5.01 | B (IL-2 production at 3 μM compound concentration between 2-10 ng/mL)
